We go through one compound from US20210251228A1, “METHODS FOR REPELLING DROSOPHILA SPECIES USING 2-PENTYLFURAN” (The United States of America, as represented by the …, priority 2020, published 2021).

Molecules are shown by their SMILES.

The subject of assay [1] is Drosophila suzukii. As to the kind of experiment: No-choice oviposition cage experiment: release rate of 2-pentylfuran on raspberry. The assay is classed as in vivo. Conditions: 2 h. As to the method: Effects of Release Rate of 2-pentylfuran on SWD Oviposition on Raspberry: No Choice Test. Based on the significant effect of 2-pentylfuran using an unknown release rate in the field, to better understand concentration response of SWD to 2-pentylfuran, we evaluated the response of adult SWD to different ranges of 2-pentylfuran release rates in 2 h no choice oviposition cage experiments conducted in the greenhouse (25° C.; natural light; 40-60% r.h.). Cages (60 cm W×60 cm H×180 cm L, BioQuip, Rancho Dominguez, Calif.) were shrouded with a piece of shade cloth (120 cm W×120 cm H×300 cm L). […] Actual release rates from each dispenser used were measured for each assay by recording weight of the dispensers prior and post assay. […] Upon completion of the assay, total number of SWD eggs oviposited into the raspberries was determined with the aid of a dissecting microscope.
(§1) Statistical Analyses: Trap catch data from multiple-choice assay and two-choice assay were analyzed in a randomized block design with block as a random factor and different EAD-active compounds as a fixed factor using Poisson distribution with log link function and maximum likelihood estimation (Proc Glimmix, SAS Institute, SAS/STAT 9.2 User's Guide, Second Edition, 2009, SAS Institute Inc., Cary, N.C.). […]

Assay [2] relates to Drosophila suzukii. As to the kind of experiment: Field cage choice test: SWD oviposition on raspberries in deli cups. It is filed as in vivo. Conditions: two-choice field cage, 10 mg/h sachet, 24 h, N=4. As to the method:
Field cage choice test: We evaluated the effect of 2-pentylfuran released at 10 mg/h on SWD oviposition in choice oviposition experiment under semi-field condition using flies from SWD lab colony in Hawaii. For this experiment, we used a different, more user-friendly dispenser (polyethylene sachet: see Cha et al. 2017). The 10 mg/h release rate of 2-pentylfuran, inferred from calculating weight loss of loaded dispensers over time as described by Cha et al. 2017 (linear regression between weight of sachet containing 2-pentylfuran (mg) and time (h) during 30 h period: sachet weight=669.1[…]*time, R2=0.99, P<0.0001) was achieved using equilateral triangle shaped sachets made with two layers of polyethylene film (0.0508 mm thickness, Thermwell Products Co., Inc, Mahwah, N.J.) with 5 cm on each side. One 2 cm by 1 cm diameter piece of cotton dental wick was placed into the sachet and 1 ml of neat 2-pentylfuran was loaded onto the dental wick with a syringe. Loaded sachets were sealed using an Impulse heat-sealer (Model MP-12C, Midwest Pacific Inc., St. Louis). […]
as §1, with “N.C.). Oviposition data from (1) laboratory dose-response test, (2) semi-field cage choice test, and (3) first and second field experiments were also analyzed in a randomized block design with block as a random factor and different 2-pentylfuran treatments as a fixed factor using Poisson distribution with log link function and maximum likelihood estimation.” for “N.C.).”

`CCCCCc1ccco1` [2-pentylfuran]: the “release rate at which SWD oviposition began to decline relative to control” value in the assay on Drosophila suzukii [1] (greenhouse cages, raspberries, N=12) is recorded as “around 2.5 mg/h”. In addition, the “reduction in number of eggs laid compared to control” value with Drosophila suzukii [1] (high release rate (5 and 10 mg/h)) worked out at 58%. Further, the “reduction of SWD oviposition on raspberries” value in the assay on Drosophila suzukii [2] (deli cups with 25% opening) was found to be 85%; in the assay on Drosophila suzukii [2] (deli cups with 50% opening), 62%; in the assay with Drosophila suzukii [2] (deli cups with 75% opening), 75%.
